Measurements: ChEMBL document CHEMBL4311991, “Design, synthesis, and biological evaluation of 1-substituted -2-aryl imidazoles targeting tubulin polymerization as potential anticancer agents” (Eur J Med Chem, 2019)

The compounds below were run on MDA-MB-468 (assay: Antiproliferative activity against human MDA-MB-468 cells assessed as reduction in cell viability after 72 hrs by MTT assay). Details: MDA-MB-468, 72 h.
Format: functional, cell-based

IC50 [µM]	SMILES
0.5	COc1ccc(-n2ccnc2-c2cc(OC)c(OC)c(OC)c2)cc1
> 100	COc1cc(-c2nccn2S(=O)(=O)c2ccccc2)cc(OC)c1OC
1.7	COc1cc(-c2nccn2-c2ccc3cc[nH]c3c2)cc(OC)c1OC
> 100	COc1ccc(C(=O)Nc2cc(OC)c(OC)c(OC)c2)cc1N
> 100	COc1cc(-c2nccn2S(=O)(=O)c2ccc(C)cc2)cc(OC)c1OC
22.6	COc1cc(-c2nccn2-c2cccc(C)c2)cc(OC)c1OC
> 100	CCn1ccnc1-c1cc(OC)c(OC)c(OC)c1
57.9	CCCCCn1ccnc1-c1cc(OC)c(OC)c(OC)c1
0.1	COc1ccc(-n2ccnc2-c2cc(OC)c(OC)c(OC)c2)cc1[N+](=O)[O-]
> 100	COc1cc(-c2nccn2C(C)C)cc(OC)c1OC
62.2	COc1cc(-c2nccn2-c2ccc(F)cc2)cc(OC)c1OC
44.1	CCCCn1ccnc1-c1cc(OC)c(OC)c(OC)c1
57.5	COc1cc(OC)cc(-n2ccnc2-c2cc(OC)c(OC)c(OC)c2)c1
0.3	COc1ccc(-n2ccnc2-c2cc(OC)c(OC)c(OC)c2)cc1O
> 100	COc1ccc(OC(=O)c2cc(OC)c(OC)c(OC)c2)cc1N
3	COc1ccc(C(=O)Nc2cc(OC)c(OC)c(OC)c2)cc1[N+](=O)[O-]

The compounds below were run on HT-29 (assay: Antiproliferative activity against human HT-29 cells assessed as reduction in cell viability after 72 hrs by MTT assay). Details: HT-29, 72 h.
Format: functional, cell-based

IC50 [µM]	SMILES
13.1	COc1ccc(-n2ccnc2-c2cc(OC)c(OC)c(OC)c2)cc1
> 100	COc1cc(-c2nccn2S(=O)(=O)c2ccccc2)cc(OC)c1OC
3.6	COc1cc(-c2nccn2-c2ccc3cc[nH]c3c2)cc(OC)c1OC
> 100	COc1ccc(C(=O)Nc2cc(OC)c(OC)c(OC)c2)cc1N
> 100	COc1cc(-c2nccn2S(=O)(=O)c2ccc(C)cc2)cc(OC)c1OC
14.6	COc1cc(-c2nccn2-c2cccc(C)c2)cc(OC)c1OC
> 100	CCn1ccnc1-c1cc(OC)c(OC)c(OC)c1
60.1	CCCCCn1ccnc1-c1cc(OC)c(OC)c(OC)c1
0.6	COc1ccc(-n2ccnc2-c2cc(OC)c(OC)c(OC)c2)cc1[N+](=O)[O-]
> 100	COc1cc(-c2nccn2C(C)C)cc(OC)c1OC
29.3	COc1cc(-c2nccn2-c2ccc(F)cc2)cc(OC)c1OC
> 100	CCCCn1ccnc1-c1cc(OC)c(OC)c(OC)c1
74.5	COc1cc(OC)cc(-n2ccnc2-c2cc(OC)c(OC)c(OC)c2)c1
16.9	COc1ccc(-n2ccnc2-c2cc(OC)c(OC)c(OC)c2)cc1O
> 100	COc1ccc(OC(=O)c2cc(OC)c(OC)c(OC)c2)cc1N
8.3	COc1ccc(C(=O)Nc2cc(OC)c(OC)c(OC)c2)cc1[N+](=O)[O-]

The compounds below were run on HUVEC (assay: Cytotoxicity against HUVEC assessed as reduction in cell viability after 72 hrs by MTT assay). Details: Homo sapiens.
Format: cell-based

SMILES	IC50 [µM]
COc1ccc(-n2ccnc2-c2cc(OC)c(OC)c(OC)c2)cc1	> 50
COc1cc(-c2nccn2-c2ccc3cc[nH]c3c2)cc(OC)c1OC	40
COc1cc(-c2nccn2-c2cccc(C)c2)cc(OC)c1OC	> 100
COc1ccc(-n2ccnc2-c2cc(OC)c(OC)c(OC)c2)cc1O	54.2

Each compound was assayed on MDA-MB-231 (assay: Antiproliferative activity against human MDA-MB-231 cells assessed as reduction in cell viability after 72 hrs by MTT assay). Details: MDA-MB-231, 72 h.
Format: functional, cell-based

IC50 [µM]	SMILES
2.7	COc1ccc(-n2ccnc2-c2cc(OC)c(OC)c(OC)c2)cc1
> 100	COc1cc(-c2nccn2S(=O)(=O)c2ccccc2)cc(OC)c1OC
7.5	COc1cc(-c2nccn2-c2ccc3cc[nH]c3c2)cc(OC)c1OC
94.2	COc1ccc(C(=O)Nc2cc(OC)c(OC)c(OC)c2)cc1N
> 100	COc1cc(-c2nccn2S(=O)(=O)c2ccc(C)cc2)cc(OC)c1OC
11.7	COc1cc(-c2nccn2-c2cccc(C)c2)cc(OC)c1OC
> 100	CCn1ccnc1-c1cc(OC)c(OC)c(OC)c1
34.2	CCCCCn1ccnc1-c1cc(OC)c(OC)c(OC)c1
7.5	COc1ccc(-n2ccnc2-c2cc(OC)c(OC)c(OC)c2)cc1[N+](=O)[O-]
> 100	COc1cc(-c2nccn2C(C)C)cc(OC)c1OC
38.4	COc1cc(-c2nccn2-c2ccc(F)cc2)cc(OC)c1OC
70.4	CCCCn1ccnc1-c1cc(OC)c(OC)c(OC)c1
45.2	COc1cc(OC)cc(-n2ccnc2-c2cc(OC)c(OC)c(OC)c2)c1
1.9	COc1ccc(-n2ccnc2-c2cc(OC)c(OC)c(OC)c2)cc1O
> 100	COc1ccc(OC(=O)c2cc(OC)c(OC)c(OC)c2)cc1N
5.7	COc1ccc(C(=O)Nc2cc(OC)c(OC)c(OC)c2)cc1[N+](=O)[O-]

These compounds were tested on HCT-15 (assay: Antiproliferative activity against human HCT15 cells assessed as reduction in cell viability after 72 hrs by MTT assay). Details: HCT-15, 72 h.
Format: functional, cell-based

IC50 [µM]	SMILES
1.3	COc1ccc(-n2ccnc2-c2cc(OC)c(OC)c(OC)c2)cc1
> 100	COc1cc(-c2nccn2S(=O)(=O)c2ccccc2)cc(OC)c1OC
4	COc1cc(-c2nccn2-c2ccc3cc[nH]c3c2)cc(OC)c1OC
> 100	COc1ccc(C(=O)Nc2cc(OC)c(OC)c(OC)c2)cc1N
> 100	COc1cc(-c2nccn2S(=O)(=O)c2ccc(C)cc2)cc(OC)c1OC
1.6	COc1cc(-c2nccn2-c2cccc(C)c2)cc(OC)c1OC
> 100	CCn1ccnc1-c1cc(OC)c(OC)c(OC)c1
> 100	CCCCCn1ccnc1-c1cc(OC)c(OC)c(OC)c1
1	COc1ccc(-n2ccnc2-c2cc(OC)c(OC)c(OC)c2)cc1[N+](=O)[O-]
> 100	COc1cc(-c2nccn2C(C)C)cc(OC)c1OC
68.6	COc1cc(-c2nccn2-c2ccc(F)cc2)cc(OC)c1OC
> 100	CCCCn1ccnc1-c1cc(OC)c(OC)c(OC)c1
> 100	COc1cc(OC)cc(-n2ccnc2-c2cc(OC)c(OC)c(OC)c2)c1
0.2	COc1ccc(-n2ccnc2-c2cc(OC)c(OC)c(OC)c2)cc1O
> 100	COc1ccc(OC(=O)c2cc(OC)c(OC)c(OC)c2)cc1N
2	COc1ccc(C(=O)Nc2cc(OC)c(OC)c(OC)c2)cc1[N+](=O)[O-]

What follows are compounds tested on HeLa (assay: Antiproliferative activity against human HeLa cells assessed as reduction in cell viability after 72 hrs by MTT assay). Details: not given.
Format: functional, cell-based

IC50 [µM]	SMILES
1.2	COc1ccc(-n2ccnc2-c2cc(OC)c(OC)c(OC)c2)cc1
> 100	COc1cc(-c2nccn2S(=O)(=O)c2ccccc2)cc(OC)c1OC
4.8	COc1cc(-c2nccn2-c2ccc3cc[nH]c3c2)cc(OC)c1OC
> 100	COc1ccc(C(=O)Nc2cc(OC)c(OC)c(OC)c2)cc1N
> 100	COc1cc(-c2nccn2S(=O)(=O)c2ccc(C)cc2)cc(OC)c1OC
1.9	COc1cc(-c2nccn2-c2cccc(C)c2)cc(OC)c1OC
> 100	CCn1ccnc1-c1cc(OC)c(OC)c(OC)c1
> 100	CCCCCn1ccnc1-c1cc(OC)c(OC)c(OC)c1
2.5	COc1ccc(-n2ccnc2-c2cc(OC)c(OC)c(OC)c2)cc1[N+](=O)[O-]
> 100	COc1cc(-c2nccn2C(C)C)cc(OC)c1OC
17.5	COc1cc(-c2nccn2-c2ccc(F)cc2)cc(OC)c1OC
> 100	CCCCn1ccnc1-c1cc(OC)c(OC)c(OC)c1
41.4	COc1cc(OC)cc(-n2ccnc2-c2cc(OC)c(OC)c(OC)c2)c1
0.1	COc1ccc(-n2ccnc2-c2cc(OC)c(OC)c(OC)c2)cc1O
> 100	COc1ccc(OC(=O)c2cc(OC)c(OC)c(OC)c2)cc1N
3.7	COc1ccc(C(=O)Nc2cc(OC)c(OC)c(OC)c2)cc1[N+](=O)[O-]

The compounds below were run on T47D (assay: Antiproliferative activity against human T47D cells assessed as reduction in cell viability after 72 hrs by MTT assay). Details: not given.
Format: functional, cell-based

IC50 [µM]	SMILES
1.4	COc1ccc(-n2ccnc2-c2cc(OC)c(OC)c(OC)c2)cc1
> 100	COc1cc(-c2nccn2S(=O)(=O)c2ccccc2)cc(OC)c1OC
18	COc1cc(-c2nccn2-c2ccc3cc[nH]c3c2)cc(OC)c1OC
> 100	COc1ccc(C(=O)Nc2cc(OC)c(OC)c(OC)c2)cc1N
> 100	COc1cc(-c2nccn2S(=O)(=O)c2ccc(C)cc2)cc(OC)c1OC
29.3	COc1cc(-c2nccn2-c2cccc(C)c2)cc(OC)c1OC
> 100	CCn1ccnc1-c1cc(OC)c(OC)c(OC)c1
64.4	CCCCCn1ccnc1-c1cc(OC)c(OC)c(OC)c1
10	COc1ccc(-n2ccnc2-c2cc(OC)c(OC)c(OC)c2)cc1[N+](=O)[O-]
> 100	COc1cc(-c2nccn2C(C)C)cc(OC)c1OC
> 100	COc1cc(-c2nccn2-c2ccc(F)cc2)cc(OC)c1OC
> 100	CCCCn1ccnc1-c1cc(OC)c(OC)c(OC)c1
> 100	COc1cc(OC)cc(-n2ccnc2-c2cc(OC)c(OC)c(OC)c2)c1
53.1	COc1ccc(-n2ccnc2-c2cc(OC)c(OC)c(OC)c2)cc1O
> 100	COc1ccc(OC(=O)c2cc(OC)c(OC)c(OC)c2)cc1N
6	COc1ccc(C(=O)Nc2cc(OC)c(OC)c(OC)c2)cc1[N+](=O)[O-]
